{
  "source": "patent US7148194B2",
  "about": "“Method to increase fibronectin” (Kimberly-Clark Worldwide, Inc., priority 2002, dated 2006)",
  "key": {"[1]": {"system": "collagen production in human skin fibroblast cell line", "assay": "collagen production in human skin fibroblasts, EIA", "assay_type": "cell-based", "conditions": "for Mean (collagen EIA, absorbance at 450 nm) / Median (collagen EIA, absorbance at 450 nm): 48 hours, n=2; for collagen production versus control: 10^−5 and 10^−6 M, P<0.001", "description": "The stimulation response of the 19mer peptide on collagen production in the human skin fibroblast cell line (Clonetics, Walkersville, Md., normal human dermal fibroblasts, neonatal, catalog number CC-2509) was measured using Takara Biomedicals EIA assay kit (TAK MKO101) sold by Panvera (Madison, Wis.). The cells were first grown in a 96-well assay system using DMEM with 10% fetal bovine serum (FBS) both purchased from Sigma Chemical Co, St. Louis, Mo. Serum-free DMEM was used as a control. […] Plates were incubated for 24 hours at 37° C. in a humidified 5% CO2 atmosphere. After incubation, the medium was aspirated and the wells were rinsed twice with 100 μl of serum-free DMEM. […] In addition, 100 μl of vehicle (serum-free DMEM) was added to 4 wells as control. All wells were incubated for 48 hours at 37° C. in a humidified, 5% CO2 atmosphere.\nThe assay was performed using the recommended 20ul of the supernatant from each well of the 96-well plate. Standard buffer and stop solutions were freshly prepared before running the assay. 100ul of antibody-POD conjugate solution (supplied with the kit) was added into the wells using pre antibody coated 96 well plate (supplied with the kit). 20ul of standard and test solutions (from the other 96-well plate containing fibroblasts) were added to appropriate wells. Plate was mixed gently, sealed and incubated for three hrs. at 37° C.\nAfter incubation each well was washed carefully four times with PBS buffer (400ul). All the wells were completely emptied at the end of washing from any liquid. 100ul of substrate solution (hydrogen peroxide and tetramethylbenzidine in a buffer solution, supplied with the kit) was added to each well and the plate was incubated for 15 minutes. At this point 100ul of stop solution (freshly prepared 1N H2SO4) was added to each well in the same order as substrate. The plate was gently mixed and absorbance was read at 450 nm. Results were analyzed statistically using one-way ANOVA."}, "[2]": {"system": "normal human dermal fibroblasts (NHDF)", "assay": "NHDF migration assay, 48-well chemotaxis chamber", "assay_type": "cell-based", "description": "Normal, human dermal fibroblasts (NHDF) were obtained from Biowhittaker, (Walkersville, Md.) and propagated in T75 flasks in FBM media (500 mL, Biowhittaker) containing insulin, hFGF-b, GA-1000, and fetal bovine serum (10 mL) for up to 12 passages. For the migration assay, NHDF were washed once with 10 mL of Hank's buffered saline solution (HBSS). Three milliliters of trypsin (0.25%) in EDTA were added to the T75 flask for no more than five minutes to remove NHDF from the flask. NHDF in trypsin solution were added to 7 mL of FBM with no supplements added. NHDF were centrifuged for 5 minutes, and the supernatant was removed. NHDF were resuspended in 10 mL of FBM for counting. NHDF were centrifuged for another 5 minutes, and the supernatant was removed. NHDF were resuspended at 1×10^6 cells per mL in FBM without supplements. It was important to use FBM media only in migration assays because the complete media contains fibroblast growth factor and serum, both of which will trigger migration of fibroblasts.\nPeptides were synthesized and purified by the Microchemical Facility at Emory University or by SigmaGenesis. All peptides were analyzed by mass spectrometry after HPLC to assess purity. Approximately 0.5–2.0 milligrams of peptide were used to make fresh stock solutions (5 mg/mL in PBS) for each migration assay. The peptide stock solutions in PBS were used to make more dilute solutions (1 mg/mL, 100 μg/mL, 10 μg/mL, 1 μg/mL, 100 ng/mL, 10 ng/mL) in FBM (without supplements) for the migration assays.\nPolyvinylpyrrolidone-free polycarbonate membranes with […] pores (Neuroprobe, Inc., Gaithersburg, Md.) were washed with 90% ethanol for 15 minutes and rinsed four times with deionized water. Membranes were then placed into a glass dish containing an aqueous solution of 5 μg/mL gelatin. The glass dish was placed in to a water bath at about 90° C. for one hour. Membranes were removed from the gelatin solution and were allowed to dry for one hour in the 37° C. incubator.\nA 48-well chemotaxis chamber (Neuroprobe, Inc., Gaithersburg, Md.) (see FIG. 20) was used for the migration assays. Twenty-eight μL of each test solution were added to the bottom wells of the chamber in quadruplicate. A gelatin-treated membrane was placed carefully on top of the bottom wells. The gasket and top part of chamber were then placed carefully on top of the membrane. The apparatus was tightened using six thumbscrews. A solution of NHDF containing an estimated cell density (2×10^5 cells per mL) was made by adding 320 μL of the 1×10^6 cells per mL solution to 1.28 mL of FBM (no supplements). Fifty microliters of the 2×10^5 cells per mL NHDF solution were added to the top part of each well in the chamber. The chamber was placed in the incubator at 37° C./5% CO2 for three hours. The chamber was removed, the thumbscrews were removed, and the chamber was turned upside down on a paper towel. […] The membrane was carefully removed. […] The membrane was fixed with methanol and stained using the Diff-Quik Staining Solutions I and II. The nuclei of NHDF are stained purple. The membrane was mounted on a glass slide using cedarwood immersion oil and a cover slip. […] The average number of migrated NHDF in the negative control was subtracted from the experimental (peptide) data and positive control data."}},
  "note": "“And” between values parts separate entries of the source, which are not always exact repeats. Equal values may be shown once.",
  "data": [
    {"smiles": "CC(C)[C@H](NC(=O)[C@H](CC(=O)O)NC(=O)[C@@H]1CCCN1C(=O)[C@H](CC(N)=O)NC(=O)CNC(=O)[C@H](CS)NC(=O)[C@H](CCCNC(=N)N)NC(=O)[C@@H]1CCCN1)C(=O)N[C@@H](C)C(=O)N[C@@H](CC(N)=O)C(=O)N[C@@H](Cc1ccc(O)cc1)C(=O)N[C@@H](CC(N)=O)C(=O)N[C@@H](Cc1ccccc1)C(=O)N[C@@H](Cc1ccccc1)C(=O)N1CCC[C@H]1C(=O)N[C@@H](CCCNC(=N)N)C(=O)N[C@@H](CCCCN)C(=O)N1CCC[C@H]1C(=O)N[C@@H](CCCCN)C(=O)O", "note": "[Peptide 19-mer]", "values": [
      {"measurement": "Mean (collagen EIA, absorbance at 450 nm)", "setting": "[1]; 1×10^−5 M", "result": 0.8365},
      {"measurement": "Median (collagen EIA, absorbance at 450 nm)", "setting": "[1]; 1×10^−5 M", "result": 0.8365},
      {"measurement": "Mean (collagen EIA, absorbance at 450 nm)", "setting": "[1]; 1×10^−6 M", "result": 0.8315},
      {"measurement": "Median (collagen EIA, absorbance at 450 nm)", "setting": "[1]; 1×10^−6 M", "result": 0.8315},
      {"measurement": "collagen production versus control", "setting": "[1]", "result": "increased collagen production"},
      {"measurement": "collagen production versus control", "setting": "[1]; listed as 19mer peptide", "result": "statistically significant amounts"},
      {"measurement": "NHDF migration, percent of the plasma fibronectin positive control", "setting": "[2]; 100 μg/mL peptide", "result": "46±3% and 46%±3%"},
      {"measurement": "NHDF migration, percent of the plasma fibronectin positive control", "setting": "[2]; 1000 μg/mL peptide", "result": "55±3% and 55%±3%"},
      {"measurement": "NHDF migration, percent of the plasma fibronectin positive control", "setting": "[2]; concentrations below 100 μg/mL", "result": "about 20%"}
    ]}
  ]
}
